Data as given in patent US7820179B2, “Pegylated PTH as PTH receptor modulators and uses thereof” (Eli Lilly and Company, priority 2006, dated 2010).
No end group written: not given here.

Legend:
[1] = tested on: aged osteopenic ovariectomized rats; test: Weekly PTH(1-34) in aged osteopenic ovariectomized rats; format: in vivo, rat
Protocol: Six-month old ovariectomized Sprague-Dawley rats are maintained on a 12 hr light/dark cycle at 22° C. with ad lib access to food (TD 89222 with 0.5% Ca and 0.4% P, Teklad, Madison, Wis.) and water. Ovariectomized rats are allowed to lose bone for 1 month, before treatment with rhPTH (1-34) for the following 3 months. The aged osteopenic ovariectomized rats are injected subcutaneously, weekly, with 0, 10 or 30 μg/kg human PTH(1-34) for 12 weeks. Sham and ovx controls are injected with the vehicle only. Lumbar vertebra are excised at necropsy and analyzed by micro-CT (Stratec), and then prepared for biomechanical testing. Strength in Newtons, (N), is evaluated by loading vertebra specimens to failure. Significance with respect to ovx vehicle controls is indicated by * in Table 7 below (Fishers PLSD, P<0.05).

[2] = tested on: aged osteopenic ovariectomized rats; conditions: 5 μg/kg/d, aged osteopenic ovariectomized rat model, literature; cited from earlier work
[3] = 5 μg/kg/d (1 nmol/kg/d); cited from earlier work
[4] = tested on: young adult osteopenic ovariectomized rats; test: Young adult osteopenic ovariectomized rats: femur BMD (QCT) and serum calcium; format: in vivo, rat; conditions: young adult Ovx rats
Protocol: Female Sprague-Dawley rats about 3 months of age are ovariectomized, except for sham controls, and maintained on a 12 hour light/dark cycle at 22° C. with ad lib access to food (TD 89222 with 0.5% Ca and 0.4% P, Teklad, Madison, Wis.) and water. Ovariectomized (Ovx) rats are allowed to lose bone for 25 days, and then weighed and randomized into treatment groups. Treatment is by subcutaneous injection of a compound of the invention at various doses (as indicated in Table 2 below) for 1 month in a vehicle of 20 mM NaH2PO4 in 0.9% NaCl, 3 mg/ml mannitol, pH 5. The rats are injected with the compounds every third or fourth day to approximate once weekly administration to a human. Sham and Ovx controls are treated with the vehicle only (“sham vehicle control” and “ovx vehicle control”). Sera are collected by cardiac puncture approximately 24 hours after final injection under isoflurane anesthesia at necropsy (approximately 24 hours after the final injection), and analyzed using a clinical chemistry analyzer (Hitachi 917, Tokyo, Japan).
At necropsy, left femora are removed, cleaned of soft-tissue and stored in 50% ethanol/saline at 4° C. At room temperature, femora in 50% EtOH/saline are wrapped in Parafilm and centered with respect to the gantry for quantitative computed tomography (QCT) (Research M, Stratec). […]

[5] = tested on: aged osteopenic ovariectomized rats; test: Aged osteopenic ovariectomized rats: vertebral BMD/BMC, bone biomechanical strength, serum calcium; format: in vivo, rat
Protocol: Hypercalcemia is defined herein as the upper 97.5 percentile serum calcium value of normal ovariectomized vehicle controls for the animal type used, using clinical chemistry data and sera collected from cardiac puncture (International Federation of Clinical Chemistry, H E Solberg in Tietz Fundamentals of Clinical Chemistry, 5th edition, Burtis C A and Ashwood E R, editors, 2001, pp 251-261). The value reflecting the 97.5 percentile is 11.2 mg of calcium per dL of serum from ovx vehicle control. The “Hypercalcemic Dose”, i.e., the dose at which hypercalcemia is observed 24 hours after injection of the test compound using clinical chemistry data and sera collected from cardiac puncture, is determined by interpolation, using regression analysis to fit the calcemic dose response observed 24 hours after administering the compound to ovariectomized rats.
Female Sprague-Dawley rats about 6 months of age are ovariectomized, except for sham controls, and maintained on a 12 hour light/dark cycle at 22° C. with ad lib access to food (TD 89222 with 0.5% Ca and 0.4% P, Teklad, Madison, Wis.) and water. Ovariectomized (Ovx) rats are allowed to lose bone for one month before treatment with compounds of the invention for two additional months. The compound to be tested is subcutaneously administered at various doses (as indicated in Table 3 below) in a vehicle of 20 mM NaH2PO4 in 0.9% NaCl, 3 mg/ml mannitol, pH 5, every 6 or 7 days for two months. Sham and Ovx controls are treated with the vehicle only (“sham vehicle control” and “ovx vehicle control”). Sera are then collected by cardiac puncture under isoflurane anesthesia at necropsy, and analyzed using a clinical chemistry analyzer. Lumbar vertebra L4-6 and left femora are removed, cleaned of soft-tissue and stored in 50% ethanol/saline at 4° C. At room temperature, L-5 in 50% EtOH/saline are wrapped in Parafilm and centered with respect to the QCT gantry (Research M, Stratec). A coronal scout scan of the L-5 vertebra is generated first in 2D before 3D analysis. QCT parameters are measured including BMD (mg/cc), BMC (mg), and cross-sectional area (mm^2). Lumbar vertebra L-5, femoral midshaft, and proximal femur are then prepared for biomechanical testing. Strength (N) is evaluated by loading the specimens to failure as described previously (Sato, et al., Endocrinology, […]:4330-4337, 1997).
Pegylated compounds of the invention are evaluated in this assay relative to a positive control of 3-5 μg/kg/d PTH(1-38). PTH(1-34) and PTH(1-38) are found to be indistinguishable in terms of skeletal efficacy or calcemic effects in osteopenic ovariectomized rats. It has been previously shown that rats administered 5 μg/kg/d (1 nmol/kg/d) PTH(1-34) have a systemic exposure that is about 3 times that of PTH(1-34) (i.e., FORTEO™) in humans (Tashjian and Chabner, J. Bone Miner Res, 17:1151-1161, 2002; Tashjian and Gagel, J. Bone Miner Res, 21:354-365, 2006). […] This is confirmed for PTH(1-38) in this model with a dosing of 3-5 μg/kg/d.

[6] = tested on: aged osteopenic ovariectomized rats; test: Direct comparison of 2 kD and 5 kD pegylated SEQ ID NO: 1 in aged osteopenic ovariectomized rats; format: in vivo, rat; conditions: for Serum Calcium: 24 hours after dosing
From the text: A compound of the invention with SEQ ID NO: 1, wherein the mPEG to which it is conjugated is a 2 kD mPEG, is directly compared to a compound of the invention with SEQ ID NO: 1, wherein the mPEG to which it is conjugated is a 5 kD mPEG. Aged osteopenic ovariectomized rats are permitted to lose bone for one month before dosing (nmol/kg as in Table 5 and 6) every 6 days with vehicle alone, or the 2 kD pegylated SEQ ID NO: 1 compound or the 5 kD pegylated SEQ ID NO: 1 compound for 8 weeks.

[7] = up to 30 ug/kg (7 nmol/kg), 12 weeks of treatment
[8] = 11 nmol/kg every 6 days for 8 weeks
[9] = 32 nmol/kg every 6 days for 8 weeks
[10] = 108 nmol/kg every 6 days for 8 weeks

CC[C@H](C)[C@H](NC(=O)[C@H](CCC(=O)O)NC(=O)[C@H](CO)NC(=O)[C@@H](NC(=O)[C@@H](N)CO)C(C)C)C(=O)N[C@@H](CCC(N)=O)C(=O)N[C@@H](CC(C)C)C(=O)N[C@@H](CCSC)C(=O)N[C@@H](Cc1cnc[nH]1)C(=O)N[C@@H](CC(N)=O)C(=O)N[C@@H](CC(C)C)C(=O)NCC(=O)N[C@@H](CCCCN)C(=O)N[C@@H](Cc1cnc[nH]1)C(=O)N[C@@H](CC(C)C)C(=O)N[C@@H](CC(N)=O)C(=O)N[C@@H](CO)C(=O)N[C@@H](CCSC)C(=O)N[C@@H](CCC(=O)O)C(=O)N[C@@H](CCCN=C(N)N)C(=O)N[C@H](C(=O)N[C@@H](CCC(=O)O)C(=O)N[C@@H](Cc1c[nH]c2ccccc12)C(=O)N[C@@H](CC(C)C)C(=O)N[C@@H](CCCN=C(N)N)C(=O)N[C@@H](CCCCN)C(=O)N[C@@H](CCCCN)C(=O)N[C@@H](CC(C)C)C(=O)N[C@@H](CCC(N)=O)C(=O)N[C@@H](CC(=O)O)C(=O)N[C@H](C(=O)N[C@@H](Cc1cnc[nH]1)C(=O)N[C@@H](CC(N)=O)C(=O)N[C@@H](Cc1ccccc1)C(=O)O)C(C)C)C(C)C [PTH(1-34)]
Vertebral strength: Average Load to Failure ([1]; 10 ug/kg s.c. weekly for 12 weeks): 222 N | Vertebral BMD: Average BMD ([1]; 10 μg/kg s.c. weekly for 12 weeks): 534 mg/mL | Vertebral strength: Average Load to Failure ([1]; 30 ug/kg s.c. weekly for 12 weeks): 243 N | Vertebral BMD: Average BMD ([1]; 30 μg/kg s.c. weekly for 12 weeks): 529 mg/mL | Serum Calcium ([1]; approximately 24 hours after the last dose): normal | Effect on vertebral BMD relative to Ovx vehicle controls [1, 7]: no significant effect | Effect on vertebral biomechanical strength relative to Ovx vehicle controls [1, 7]: no significant effect | Restoration of vertebral BMD from Ovx to sham vehicle control levels [2]: restore vertebral BMD from Ovx to sham vehicle control levels | Systemic exposure in rats relative to PTH(1-34) (FORTEO) in humans [3]: about 3 times

SEQ ID NO: 1 with 5 kD mPEG (SVSEIQLMHNLGRHLASMERVEWLRKLLQDVHNF-NH2; not fully specified (residue 26))
Hypercalcemic Dose/BMD Dose [4]: >8.8 | Hypercalcemic Dose/Femoral Neck Strength Dose ([5]; derived from Table 3): >9.7 | Hypercalcemic Dose/Midshaft Strength Dose ([5]; derived from Table 3): >1.0 | Hypercalcemic Dose/Vertebral BMC Dose ([5]; derived from Table 3): >3.34 | Hypercalcemic Dose/Vertebral BMD Dose ([5]; derived from Table 3): >1.0 | Hypercalcemic Dose/Vertebral Strength Dose ([5]; derived from Table 3): >1.0 | Vertebral BMC Dose ([5]; dose at which Sham level of vertebral BMC is achieved): 32 nmol/kg | Vertebral BMD Dose ([5]; dose at which Sham level of vertebral BMD is achieved, s.c. every 6 or 7 days for two months): >108 nmol/kg | Fem Neck Strength Dose ([5]; dose at which femoral neck strength comparable to sham vehicle control and positive control is achieved): 11 nmol/kg | Midshaft Strength Dose ([5]; dose at which midshaft strength comparable to sham vehicle control and positive control is achieved): 108 nmol/kg | Vertebral Strength Dose ([5]; dose at which vertebral strength comparable to sham and positive control is achieved): 108 nmol/kg | Hypercalcemia Dose ([5]; sera 24 hours after administration, > means highest dose tested, not reached): >107 nmol/kg | Vertebral BMD [6, 8]: 567 mg/cc | Serum Calcium [6, 8]: 10.86 mg/dL | Vertebral BMD [6, 9]: 589 mg/cc | Serum Calcium [6, 9]: 10.79 mg/dL | Vertebral BMD [6, 10]: 612 mg/cc | Serum Calcium [6, 10]: 11.03 mg/dL
